Results as given in ChEMBL document CHEMBL3045426, “Synthesis, Antiviral and Antibacterial Activities of Isatin Mannich Bases” (Med Chem Res, 2005).
Converted amounts (≈) assume the structure as drawn.

Test system: Vibrio cholerae
Assay: Antimicrobial activity against Vibrio cholerae 01 after 18 to 20 hr by agar dilution method
Assay type: functional
Conditions: 1
With `COc1cc(Cc2cnc(/N=C3\C(=O)N(CN4CCN(c5ccccn5)CC4)c4ccc(Cl)cc43)nc2N)cc(OC)c1OC` the MIC was 9.76 µg/mL (≈ 15.5 µM).

Test system: Priestia megaterium
Assay: Antimicrobial activity against Bacillus megaterium after 18 to 20 hr by agar dilution method
Assay type: functional
Conditions: not given
Work on `COc1cc(Cc2cnc(/N=C3\C(=O)N(CN4CCN(c5ccccn5)CC4)c4ccc(Cl)cc43)nc2N)cc(OC)c1OC` yielded an MIC of 1250 µg/mL (≈ 1990 µM).

Test system: Enterobacter
Assay: Antimicrobial activity against Enterobacter after 18 to 20 hr by agar dilution method
Assay type: functional
Conditions: not given
With `COc1cc(Cc2cnc(/N=C3\C(=O)N(CN4CCN(c5ccccn5)CC4)c4ccc(Cl)cc43)nc2N)cc(OC)c1OC` the MIC was 1250 µg/mL (≈ 1990 µM).

Test system: Citrobacter freundii
Assay: Antimicrobial activity against Citrobacter freundii after 18 to 20 hr by agar dilution method
Assay type: functional
Conditions: not given
In the case of `COc1cc(Cc2cnc(/N=C3\C(=O)N(CN4CCN(c5ccccn5)CC4)c4ccc(Cl)cc43)nc2N)cc(OC)c1OC`, the MIC is reported as 625 µg/mL (≈ 993 µM).

Test system: Salmonella enteritidis
Assay: Antimicrobial activity against Salmonella enterica subsp. enterica serovar Enteritidis after 18 to 20 hr by agar dilution method
Assay type: functional
Conditions: not given
Compound `COc1cc(Cc2cnc(/N=C3\C(=O)N(CN4CCN(c5ccccn5)CC4)c4ccc(Cl)cc43)nc2N)cc(OC)c1OC` has an MIC of 1250 µg/mL (≈ 1990 µM).

Test system: Salmonella typhimurium
Assay: Antimicrobial activity against Salmonella enterica subsp. enterica serovar Typhimurium after 18 to 20 hr by agar dilution method
Assay type: functional
Conditions: not given
For `COc1cc(Cc2cnc(/N=C3\C(=O)N(CN4CCN(c5ccccn5)CC4)c4ccc(Cl)cc43)nc2N)cc(OC)c1OC`, the MIC was 1250 µg/mL (≈ 1990 µM).

Test system: Proteus mirabilis
Assay: Antimicrobial activity against Proteus mirabilis after 18 to 20 hr by agar dilution method
Assay type: functional
Conditions: not given
Compound `COc1cc(Cc2cnc(/N=C3\C(=O)N(CN4CCN(c5ccccn5)CC4)c4ccc(Cl)cc43)nc2N)cc(OC)c1OC` has an MIC of 1250 µg/mL (≈ 1990 µM).

Test system: Proteus vulgaris
Assay: Antimicrobial activity against Proteus vulgaris after 18 to 20 hr by agar dilution method
Assay type: functional
Conditions: not given
In the case of `COc1cc(Cc2cnc(/N=C3\C(=O)N(CN4CCN(c5ccccn5)CC4)c4ccc(Cl)cc43)nc2N)cc(OC)c1OC`, the MIC is reported as 625 µg/mL (≈ 993 µM).

Test system: Edwardsiella tarda
Assay: Antimicrobial activity against Edwardsiella tarda after 18 to 20 hr by agar dilution method
Assay type: functional
Conditions: not given
With `COc1cc(Cc2cnc(/N=C3\C(=O)N(CN4CCN(c5ccccn5)CC4)c4ccc(Cl)cc43)nc2N)cc(OC)c1OC` the MIC was 1250 µg/mL (≈ 1990 µM).

Test system: Escherichia coli
Assay: Antimicrobial activity against Escherichia coli NCTC 10418 after 18 to 20 hr by agar dilution method
Assay type: functional
Conditions: not given
Work on `COc1cc(Cc2cnc(/N=C3\C(=O)N(CN4CCN(c5ccccn5)CC4)c4ccc(Cl)cc43)nc2N)cc(OC)c1OC` yielded an MIC of 1250 µg/mL (≈ 1990 µM).

Test system: Salmonella typhi
Assay: Antimicrobial activity against Salmonella enterica subsp. enterica serovar Typhi after 18 to 20 hr by agar dilution method
Assay type: functional
Conditions: not given
For `COc1cc(Cc2cnc(/N=C3\C(=O)N(CN4CCN(c5ccccn5)CC4)c4ccc(Cl)cc43)nc2N)cc(OC)c1OC`, the MIC was 1250 µg/mL (≈ 1990 µM).

Test system: Salmonella paratyphi
Assay: Antimicrobial activity against Salmonella enterica subsp. enterica serovar Paratyphi A after 18 to 20 hr by agar dilution method
Assay type: functional
Conditions: not given
`COc1cc(Cc2cnc(/N=C3\C(=O)N(CN4CCN(c5ccccn5)CC4)c4ccc(Cl)cc43)nc2N)cc(OC)c1OC` gave an MIC of 312 µg/mL (≈ 497 µM).

Test system: Vibrio parahaemolyticus
Assay: Antimicrobial activity against Vibrio parahaemolyticus after 18 to 20 hr by agar dilution method
Assay type: functional
Conditions: not given
For `COc1cc(Cc2cnc(/N=C3\C(=O)N(CN4CCN(c5ccccn5)CC4)c4ccc(Cl)cc43)nc2N)cc(OC)c1OC`, the MIC was 1.22 µg/mL (≈ 1.94 µM).

Test system: Vibrio cholerae
Assay: Antimicrobial activity against Vibrio cholerae 0139 after 18 to 20 hr by agar dilution method
Assay type: functional
Conditions: 139
Work on `COc1cc(Cc2cnc(/N=C3\C(=O)N(CN4CCN(c5ccccn5)CC4)c4ccc(Cl)cc43)nc2N)cc(OC)c1OC` yielded an MIC of 312 µg/mL (≈ 497 µM).

Test system: Vibrio fluvialis
Assay: Antimicrobial activity against Vibrio fluvialis after 18 to 20 hr by agar dilution method
Assay type: functional
Conditions: not given
In the case of `COc1cc(Cc2cnc(/N=C3\C(=O)N(CN4CCN(c5ccccn5)CC4)c4ccc(Cl)cc43)nc2N)cc(OC)c1OC`, the MIC is reported as 1250 µg/mL (≈ 1990 µM).

Test system: Vibrio mimicus
Assay: Antimicrobial activity against Vibrio mimicus after 18 to 20 hr by agar dilution method
Assay type: functional
Conditions: not given
`COc1cc(Cc2cnc(/N=C3\C(=O)N(CN4CCN(c5ccccn5)CC4)c4ccc(Cl)cc43)nc2N)cc(OC)c1OC` gave an MIC of 1.22 µg/mL (≈ 1.94 µM).

Test system: Pseudomonas aeruginosa
Assay: Antimicrobial activity against Pseudomonas aeruginosa after 18 to 20 hr by agar dilution method
Assay type: functional
Conditions: not given
With `COc1cc(Cc2cnc(/N=C3\C(=O)N(CN4CCN(c5ccccn5)CC4)c4ccc(Cl)cc43)nc2N)cc(OC)c1OC` the MIC was 1250 µg/mL (≈ 1990 µM).

Test system: Staphylococcus aureus
Assay: Antimicrobial activity against Staphylococcus aureus after 18 to 20 hr by agar dilution method
Assay type: functional
Conditions: not given
`COc1cc(Cc2cnc(/N=C3\C(=O)N(CN4CCN(c5ccccn5)CC4)c4ccc(Cl)cc43)nc2N)cc(OC)c1OC` showed an MIC of 1250 µg/mL (≈ 1990 µM).

Test system: Morganella morganii
Assay: Antimicrobial activity against Morganella morganii after 18 to 20 hr by agar dilution method
Assay type: functional
Conditions: not given
`COc1cc(Cc2cnc(/N=C3\C(=O)N(CN4CCN(c5ccccn5)CC4)c4ccc(Cl)cc43)nc2N)cc(OC)c1OC` showed an MIC of 312 µg/mL (≈ 497 µM).

Test system: Shigella boydii
Assay: Antimicrobial activity against Shigella boydii after 18 to 20 hr by agar dilution method
Assay type: functional
Conditions: not given
`COc1cc(Cc2cnc(/N=C3\C(=O)N(CN4CCN(c5ccccn5)CC4)c4ccc(Cl)cc43)nc2N)cc(OC)c1OC` showed an MIC of 2.44 µg/mL (≈ 3.88 µM).

Test system: Plesiomonas
Assay: Antimicrobial activity against Plesiomonas after 18 to 20 hr by agar dilution method
Assay type: functional
Conditions: not given
`COc1cc(Cc2cnc(/N=C3\C(=O)N(CN4CCN(c5ccccn5)CC4)c4ccc(Cl)cc43)nc2N)cc(OC)c1OC` showed an MIC of 9.76 µg/mL (≈ 15.5 µM).

Test system: Shigella sonnei
Assay: Antimicrobial activity against Shigella sonnei after 18 to 20 hr by agar dilution method
Assay type: functional
Conditions: not given
Work on `COc1cc(Cc2cnc(/N=C3\C(=O)N(CN4CCN(c5ccccn5)CC4)c4ccc(Cl)cc43)nc2N)cc(OC)c1OC` yielded an MIC of 1250 µg/mL (≈ 1990 µM).

Test system: Klebsiella pneumoniae
Assay: Antimicrobial activity against Klebsiella pneumoniae after 18 to 20 hr by agar dilution method
Assay type: functional
Conditions: not given
With `COc1cc(Cc2cnc(/N=C3\C(=O)N(CN4CCN(c5ccccn5)CC4)c4ccc(Cl)cc43)nc2N)cc(OC)c1OC` the MIC was 1250 µg/mL (≈ 1990 µM).

Test system: Klebsiella pneumoniae
Assay: Antimicrobial activity against Klebsiella pneumoniae subsp. ozaenae after 18 to 20 hr by agar dilution method
Assay type: functional
Conditions: not given
`COc1cc(Cc2cnc(/N=C3\C(=O)N(CN4CCN(c5ccccn5)CC4)c4ccc(Cl)cc43)nc2N)cc(OC)c1OC` showed an MIC of 625 µg/mL (≈ 993 µM).

Test system: Mycobacterium tuberculosis
Assay: Antimycobacterial activity against Mycobacterium tuberculosis H37Rv ATCC 27294 at 6.25 ug/ml by MABA
Assay type: functional
Conditions: not given
`COc1cc(Cc2cnc(/N=C3\C(=O)N(CN4CCN(c5ccccn5)CC4)c4ccc(Cl)cc43)nc2N)cc(OC)c1OC` gave an inhibition at 6.25 µg/mL of 23%.

Test system: not listed separately
Assay: Cytotoxicity against Homo sapiens (human) HuH7 cells assessed as cell growth at 50 ug/ml after 3 days by Neutral red assay
Assay type: cell-based, Huh-7
Conditions: read-out: Activity
Work on `COc1cc(Cc2cnc(/N=C3\C(=O)N(CN4CCN(c5ccccn5)CC4)c4ccc(Cl)cc43)nc2N)cc(OC)c1OC` yielded a viability at 72 h, 50 ug/ml of 101%.

Test system: not listed separately
Assay: Cytotoxicity against Homo sapiens (human) CEM cells after 5 days by MTT assay
Assay type: cell-based
Conditions: CEM cells (CCRF-CEM)
In the case of `COc1cc(Cc2cnc(/N=C3\C(=O)N(CN4CCN(c5ccccn5)CC4)c4ccc(Cl)cc43)nc2N)cc(OC)c1OC`, the CC50 at 120 h is reported as 29.4 µg/mL (≈ 46.7 µM).

Test system: Human immunodeficiency virus 1
Assay: Antiviral activity against Human immunodeficiency virus 1 IIIB infected CEM cells assessed as protection against viral infection after 6 days by XTT assay
Assay type: functional, CCRF-CEM
Design: concentration or dose not given beside the values
Conditions: not given
Work on `COc1cc(Cc2cnc(/N=C3\C(=O)N(CN4CCN(c5ccccn5)CC4)c4ccc(Cl)cc43)nc2N)cc(OC)c1OC` yielded an Activity of 23.55%.

Test system: Human immunodeficiency virus 1
Assay: Antiviral activity against Human immunodeficiency virus 1 IIIB infected CEM cells assessed as inhibition of virus-induced cytopathicity after 6 days by XTT assay
Assay type: functional, organism-based
Conditions: CCRF-CEM, 144 h
With `COc1cc(Cc2cnc(/N=C3\C(=O)N(CN4CCN(c5ccccn5)CC4)c4ccc(Cl)cc43)nc2N)cc(OC)c1OC` the EC50 was over 29.4 µg/mL.

Test system: not listed separately
Assay: Cytotoxicity against Homo sapiens (human) MT4 cells after 5 days by MTT assay
Assay type: cell-based
Conditions: not given
In the case of `COc1cc(Cc2cnc(/N=C3\C(=O)N(CN4CCN(c5ccccn5)CC4)c4ccc(Cl)cc43)nc2N)cc(OC)c1OC`, the CC50 at 120 h is reported as 39.2 µg/mL (≈ 62.3 µM).

Test system: Human immunodeficiency virus 1
Assay: Antiviral activity against Human immunodeficiency virus 1 IIIB infected MT4 cells assessed as inhibition of virus-induced cytopathicity after 5 days by MTT assay
Assay type: functional, organism-based
Conditions: MT4, 120 h
`COc1cc(Cc2cnc(/N=C3\C(=O)N(CN4CCN(c5ccccn5)CC4)c4ccc(Cl)cc43)nc2N)cc(OC)c1OC` showed an EC50 of over 39.2 µg/mL.

Test system: Hepatitis C virus
Assay: Antiviral activity against Hepatitis C virus BM4-5 infected in Huh7 cells assessed as inhibition of viral RNA replication by phosphor screening method
Assay type: functional, Hepacivirus hominis, Huh-7
Conditions: not given
In the case of `COc1cc(Cc2cnc(/N=C3\C(=O)N(CN4CCN(c5ccccn5)CC4)c4ccc(Cl)cc43)nc2N)cc(OC)c1OC`, the “inhibition (INH)” value is reported as 89%.

Test system: Human immunodeficiency virus 1
Assay: Antiviral activity against Human immunodeficiency virus 1 IIIB infected MT4 cells assessed as protection against viral infection after 5 days by MTT assay
Assay type: functional
Design: concentration or dose not given beside the values
Conditions: not given
With `COc1cc(Cc2cnc(/N=C3\C(=O)N(CN4CCN(c5ccccn5)CC4)c4ccc(Cl)cc43)nc2N)cc(OC)c1OC` the Activity was 16.6%.
